Patent publication US9624244B2, “Benzo [B] isoxazoloazepine bromodomain inhibitors and uses thereof” (Constellation Pharmaceuticals, Inc., priority 2012, dated 2017)

How the values were obtained:
[1] = system: MYC mRNA, MV4:11 (AML) or Raji (Burkitt's lymphoma) cells; assay: cMyc RNA quantification assay (QuantiGene); type: cell-based; conditions: MV4:11 or Raji cells, 4 h, MYC mRNA normalized to DMSO
Method: cMyc RNA Quantification Assay (QuantiGene® Assay):
MV4:11 (AML) or Raji (Burkitt's lymphoma) cells were seeded in a 96-well plate and incubated in the presence of various concentrations of compounds for 4 h. Relative mRNA levels were quantitated by using QuantiGene 2.0 assay (Affymetrix) according to the manufacturer's recommendation. Signals were detected by using an Envision plate reader (Perkin-Elmer). Biological duplicates were averaged and normalized to vehicle (DMSO) control to calculate percent MYC mRNA levels.

[2] = system: IL-6 secretion, THP-1 cells; assay: Cell-based IL-6 quantification assay (ELISA, Mesoscale) in LPS-stimulated THP-1 cells; conditions: Homo sapiens, LPS 4 μg/mL, 16 h, ELISA value/CellTiter-Glo ratio
Method: Cell-Based IL-6 Quantification Assay (ELISA, Mesoscale Assay):
100,000 THP-1 cells were seeded in RPMI1640-10% FBS in 96-well plates. LPS (E. Coli Invitrogen) in RPMI-10% FBS at a final concentration of 4 μg/mL was added to the wells and the cells are then incubated in the presence of various concentrations of compounds for 16 h. Plates are spun ([…], 5 min), an aliquot of 25 uL supernatant is transferred in to an ELISA plate (Mesoscale technology, MSD) and the detection of IL-6 is performed using manufacturer's instructions. The amount of cells in each well is assessed using CellTiter-Glo® (Promega). The ratio of ELISA value/CellTiter-Glo value is used to calculate the percent of inhibition of IL-6 secretion.

BRD4(BD1) = target: T1, BRD4(BD1) (Homo sapiens, UniProt O60885); assay: BRD4 AlphaLisa binding assay; conditions: BRD4(BD1) 30 nM, biotinylated H4-tetraacetyl peptide 200 nM, read-out: AS IC50
T1 construct: His; made in house
Method: IC50 Measurements for Inhibitors Using BRD4 AlphaLisa Binding Assay
Specifically, in a 384 well ProxiPlate BRD4(BD1) (30 nM final) was combined with peptide (200 nM final) in 40 mM HEPES (pH 7.0), 40 mM NaCl, 1 mM DTT, 0.01% (w/v) BSA, and 0.008% (w/v) Brij-35 either in the presence of DMSO (final 1.2% DMSO) or compound dilution series in DMSO. After 20 minute incubation at room temperature Alpha streptavidin donor beads and AlphaLisa anti-Flag acceptor beads were added to a final concentration of 10 ug/mL each. After three hours equilibration plates were read on an Envision instrument and IC50s calculated using a four parameter non-linear curve fit.

SMILES	EC50 [1] [nM]	IC50 [2] [nM]	IC50 (BRD4(BD1)) [nM]
Cc1noc2c1-c1cc(-c3cnn(C)c3)ccc1N(c1ccc(C#N)cc1)CC2 [Compound 114]	> 4000	> 15000	3800
Cc1noc2c1-c1ccccc1NC(C)C2 (stereo not drawn) [Compound 144, 1,5-dimethyl-5,6-dihydro-4H-benzo[b]isoxazolo[4,5-d]azepine]	–	> 15000	24000
Cc1noc2c1-c1ccc(-c3cnn(C)c3)cc1N(c1ccc(C#N)cc1)CC2C (stereo not drawn) [Compound 124]	260	120	40
Cc1noc2c1-c1ccccc1NCC2 [Compound 100, 1-methyl-5,6-dihydro-4H-benzo[b]isoxazolo[4,5-d]azepine]	–	> 15000	29800
Cc1cccc2c1N(Cc1ccccc1)CCc1onc(C)c1-2 [Compound 131, 6-benzyl-1,7-dimethyl-5,6-dihydro-4H-benzo[b]isoxazolo[4,5-d]azepine]	> 4000	8500	20700
Cc1noc2c1-c1ccc(-c3cnn(C)c3)cc1N(c1ccc(C#N)cc1)CC2CCO (stereo not drawn) [Compound 138, 4-(4-(2-hydroxyethyl)-1-methyl-8-(1-methyl-1H-pyrazol-4-yl)-4H-benzo[b]isoxazolo[4,5-d]azepin-6(5H)-yl)benzonitrile]	310	340	80
Cc1noc2c1-c1ccc(Cl)cc1N(S(=O)(=O)c1ccccc1)CC2 [Compound 133, 8-chloro-1-methyl-6-(phenylsulfonyl)-5,6-dihydro-4H-benzo[b]isoxazolo[4,5-d]azepine]	> 4000	> 1000	> 4000
Cc1noc2c1-c1ccccc1N(c1ccc(C#N)cc1)CC21CC1 [Compound 104]	–	–	750
Cc1noc2c1-c1cc(-c3cncnc3)ccc1N(c1ccc(C#N)cc1)CC2 [Compound 112]	–	> 15000	50000
CCCN1CCc2onc(C)c2-c2ccccc21 [Compound 129, 1-methyl-6-propyl-5,6-dihydro-4H-benzo[b]isoxazolo[4,5-d]azepine]	–	> 15000	7900
Cc1noc2c1-c1cc(C(N)=O)ccc1N(c1ccc(C#N)cc1)CC2 [Compound 126, 6-(4-cyanophenyl)-1-methyl-5,6-dihydro-4H-benzo[b]isoxazolo[4,5-d]azepine-9-carboxamide]	1790	5280	1410
Cc1onc2c1-c1ccccc1NCC2 [Compound 143, 1-methyl-5,6-dihydro-4H-benzo[b]isoxazolo[4,3-d]azepine]	–	–	39600
Cc1noc2c1-c1ccccc1N(c1ccc(C#N)cc1)C(C)C2 (stereo not drawn) [Compound 141, 4-(1,5-dimethyl-4H-benzo[b]isoxazolo[4,5-d]azepin-6(5H)-yl)benzonitrile]	–	4390	560
Cc1noc2c1-c1ccccc1N(C(C)C)CC2 [Compound 128, 6-isopropyl-1-methyl-5,6-dihydro-4H-benzo[b]isoxazolo[4,5-d]azepine]	–	> 15000	8100
Cc1noc2c1-c1ccccc1N(Cc1ccccc1)CC2 [Compound 130, 6-benzyl-1-methyl-5,6-dihydro-4H-benzo[b]isoxazolo[4,5-d]azepine]	> 4000	5900	12900
Cc1noc2c1-c1ccc(-c3cnn(C)c3)cc1N(c1ccc(C#N)cc1)CC2CC#N (stereo not drawn) [Compound 140, 4-(4-(cyanomethyl)-1-methyl-8-(1-methyl-1H-pyrazol-4-yl)-4H-benzo[b]isoxazolo[4,5-d]azepin-6(5H)-yl)benzonitrile]	–	> 1000	500
Cc1noc2c1-c1ccccc1NC(=O)C2N (stereo not drawn) [Compound 142, 4-amino-1-methyl-4H-benzo[b]isoxazolo[4,5-d]azepin-5(6H)-one]	–	> 1000	> 80000
Cc1ccc2c(c1)-c1c(C)noc1CCN2c1ccc(C#N)cc1 [Compound 106]	1980	> 1000	230

SMILES	EC50 [1] [nM]	IC50 [2] [nM]	IC50 (BRD4(BD1)) [nM]
Cc1onc2c1-c1ccccc1N(c1ccc(Cl)cc1)CC2 [Compound 136, 6-(4-chlorophenyl)-1-methyl-5,6-dihydro-4H-benzo[b]isoxazolo[4,3-d]azepine]	> 4000	7700	4770
Cc1noc2c1-c1ccc(-c3ccc(=O)n(C)c3)cc1N(c1ccc(C#N)cc1)CC2C (stereo not drawn) [Compound 125]	170	90	40
Cc1noc2c1-c1ccc(-c3ccc(N)nc3)cc1N(c1ccc(C#N)cc1)CC2 [Compound 116]	550	380	60
Cc1noc2c1-c1cc(C#N)ccc1N(c1ccc(C#N)cc1)CC2 [Compound 108]	–	–	570
Cc1noc2c1-c1ccccc1N(c1ccc(Cl)cc1)CC2 [Compound 101]	–	11900	2680
Cc1noc2c1-c1ccccc1N(C(=O)c1ccccc1)CC2 [Compound 132, (1-methyl-4H-benzo[b]isoxazolo[4,5-d]azepin-6(5H)-yl)(phenyl)methanone]	–	3110	8140
Cc1noc2c1-c1ccccc1N(C)CC2 [Compound 127, 1,6-dimethyl-5,6-dihydro-4H-benzo[b]isoxazolo[4,5-d]azepine]	–	> 15000	9870
Cc1noc2c1-c1ccc(-c3ccc(N)nc3)cc1N(c1ccc(C#N)cc1)CC2CC(=O)N(C)C (stereo not drawn) [Compound 139, 2-(8-(6-aminopyridin-3-yl)-6-(4-cyanophenyl)-1-methyl-5,6-dihydro-4H-benzo[b]isoxazolo[4,5-d]azepin-4-yl)-N,N-dimethylacetamide]	> 4000	> 1000	1000
Cc1noc2c1-c1ccc(-c3cnn(CC(N)=O)c3)cc1N(c1ccc(C#N)cc1)CC2C (stereo not drawn) [Compound 134, 2-(4-(6-(4-cyanophenyl)-1,4-dimethyl-5,6-dihydro-4H-benzo[b]isoxazolo[4,5-d]azepin-8-yl)-1H-pyrazol-1-yl)acetamide]	120	70	30
Cc1noc2c1-c1ccc(-c3ccc(N)nc3)cc1N(c1ccc(C#N)cc1)CC2C (stereo not drawn) [Compound 123]	200	80	40
Cc1noc2c1-c1ccc(-c3cnn(C)c3)cc1N(c1ccc(C#N)cc1)CC2 [Compound 110]	780	> 1000	80
Cc1noc(C)c1-c1ccc2c(c1)N(c1ccc(C#N)cc1)CCc1onc(C)c1-2 [Compound 111]	3330	> 1000	300
Cc1noc2c1-c1ccc(-c3cnn(C)c3)cc1N(c1ccc(C#N)cc1)CC2CC(N)=O (stereo not drawn) [Compound 137, 2-(6-(4-cyanophenyl)-1-methyl-8-(1-methyl-1H-pyrazol-4-yl)-5,6-dihydro-4H-benzo[b]isoxazolo[4,5-d]azepin-4-yl)acetamide]	1840	> 1000	420
Cc1noc2c1-c1ccccc1N(c1ccc(C#N)cc1)CC2 [Compound 102]	–	4570	430
Cc1noc2c1-c1ccc(-c3ccc(=O)n(C)c3)cc1N(c1ccc(C#N)cc1)CC2 [Compound 117]	610	150	40
Cc1noc2c1-c1ccccc1N(c1ccc(Cl)cc1)CC21CC1 [Compound 105]	–	–	3380
Cc1cc(C#N)ccc1N1CCc2onc(C)c2-c2ccccc21 [Compound 107]	–	> 15000	> 4000
